Columns and labels:
Type in all cases: cell-based, human
[1] = test system: tdRFP+ CD31+ CD32+ LYVE1+ cells; test: Fenestration by scanning electron microscopy after latrunculin A stimulation
Source text: FIG. 11: hPSC-Derived, In Vivo Matured LSECs are Fenestrated and Scavenge E. coli Bioparticles. (11A) Representative scanning electron microscopic images of primary human insitu vasculature imaged on the cut surface of fresh fixed liver tissue. LSECs, terminal portal venous endothelium and hepatic artery endothelium are shown for comparison of presence (indicated by white arrows) or absence of fenestrations. (11B) Representative scanning electron microscopic images of day 8 venous angioblast-derived, in vivo-matured, FACS-isolated based on indicated marker panels, overnight-cultured, treated for 30 minutes with or without fenestration (white arrows) stimulating 0.1 μg/ml Latrunculin A, fixed and processed for SEM. Imaging conditions and scale bar are indicated on each image. (11C) Quantification of fenestrated cells (>10 fenestrations arranged in a defined sieve plate cluster), endothelial cells (smooth edged cells with angiogenic lateral sprouts free from fibroblast-like adhesions), non-endothelial cells (fibroblast-like cells and rounded cells) was performed manually on the indicated numbers of cells from a total of at least 4 independent replicates pooling the data. Comparative in vitro derived cells including venous LSEC-LCs sorted as CD31+CD32+LVYE1+ on day 18, replated and cultured for an additional 10 days in addition to standard multi-donor derived HUVECs that were also quantified with and without Latrunculin A stimulation. (11D-11E) Quantification of fenestration size (longest diameter) in (11C) primary human LSECs in situ (black), venous angioblast-derived, in vivo matured and isolated LSECs with (white) and without (grey) latrunculin A stimulation. (11E) Quantification of surface area of LSECs covered by fenestrations before and after latrunculin stimulation. Error bars represent SEM. […]

arterial and venous ECs = test: IOX2 treatment of arterial and venous LSEC-LCs (HIF1a signalling), flow cytometry and qRT-PCR
Source text: FIG. 6: CD32B Expression is Regulated by Hypoxia/HIFla Signalling. […] (6B) Representative flow cytometric analysis of normoxic cultured CD31+ arterial LSEC-LCs treated with DMSO or IOX2 at increasing doses (days 12-16). (6C) qRT-PCR analysis of LSEC markers in day 16 arterial and venous LSEC-LCs cultured under normoxia conditions treated with DMSO or increasing IOX2 doses for 4 days (ANOVA with Bonferroni test, *p<0.05, comparing arterial and venous cells at give IOX2 doses). (6D) Representative flow cytometric analysis of day 16 arterial and venous CD31+ LSEC-LCs cultured under normoxic and hypoxic conditions with and without IOX2. For all qRT-PCR analysis, expression values are normalized to levels of the housekeeping gene TBP. Error bars represent SEM.
To further investigate the role of oxygen on LSEC marker expression, we next interrogated the HIFI a signaling pathway as a probable mechanistic regulator of EC gene expression.

[2] = test system: hPSC-derived day 4 mesoderm; test: VEGF and bFGF titration on day 4 mesoderm cultures, day 6 flow cytometry for CD34+ angioblast subpopulations
Description: (1A) Schematic of EB-based hPSC differentiation to venous angioblasts. (1B) Heatmap comparing kinetic gene expression profiles of day 0-8 bulk EB populations and day 8 CD34+ MACS enriched angioblasts following venous differentiation (day 4-8 10 ng/ml VEGFA, 30 ng/ml bFGF 10 μm GSI) as in (1A). High (dark) and low (light) expression levels are indicated for each gene. (1C) Representative flow cytometric analysis of day 4 KDR+CD56+CD235a-mesodermal cells and day 8 CD34+CD31 low venous angioblasts before and after MACS enrichment. […] For all qRT-PCR analysis, expression values are normalized to levels of the housekeeping gene TBP. Error bars represent SEM.
Previous work from our group (Ditadi et al., 2015) and others (Zhang et al., 2017), has shown that VEGF, bFGF, NOTCH signaling play a role in the specification of arterial and venous vascular fates in hPSC differentiation cultures. The effects of VEGF signaling in promoting arterial and venous development were assessed. To address this, different concentrations of VEGF (0 to 100 ng/ml) were added to day 4 cultures that contained low amounts of bFGF (5 ng/ml) and the resulting day 6 populations were analyzed for the presence of CD34^+CD31^+ vascular cells and CD184^+CD73^lowCD34^+ and CD184^−CD73^+CD34^+ populations that we have previously shown contain progenitors specified to arterial and venous fates respectively.

[3] = test system: venous angioblast-derived populations; test: LSEC-LC specification of venous angioblast-derived populations, RT-qPCR of LSEC associated markers; details: for expression of LSEC associated markers (LYVE1, STAB2, FCGR2B, F8): treated every 2 days for 4 days, RT-qPCR of bulk populations
Description: (3A) Schematic of EB-based hPSC-derived day 4 mesoderm differentiation to venous angioblasts, endothelial cells and LSEC-like cells (LSEC-LCs). […] For all qRT-PCR analysis, expression values are normalized to levels of the housekeeping gene TBP. Error bars represent SEM.
The resulting bulk populations were analyzed for expression of LSEC associated markers by RT-qPCR (FIG. 3B). Based on immunofluorescence (Strauss et al., 2017), flow cytometry (Fomin et al., 2013), bulk RNA-seq (Shahani et al., 2014), and recent single cell RNA-seq of human liver (MacParland et al., 2018) studies, human LSECs are distinguished by the co-expression of surface receptors, secreted proteins, and transcription factors including, LYVE1, CD14, CD32B (FCGR2B), CD36, CD54 (ICAM1), CD73, CD144, CD206 (MRC1), STAB1, STAB2, CLEC1B, PLAVP, GATA4 and F8 among others. Additionally, they express lower levels of canonical vascular markers such as CD31(PECAM1), CD34, CD105, CD309 (KDR), and VWF than portal arterial and venous endothelial cells. As a candidate marker set we focused the analysis on expression of scavenger receptors LYVE1, STAB2, CD32B/FCGR2B, F8, and VWF.

[4] = tdRFP+ CD31+ CD32+ LYVE1+ cells, 30 minutes stimulation
[5] = arterial and venous ECs, normoxia, 4 days, qRT-PCR
[6] = bFGF up to 30 ng/ml with VEGF 100 ng/ml, days 4-6

## C/C1=C/C(=O)O[C@@H]2C[C@@H](CC[C@H](C)/C=C\C=C\CC1)O[C@@](O)([C@@H]1CSC(=O)N1)C2 [latrunculin A]
[1]; HUVECs and extended culture venous LSEC-LCs
  induction of fenestrations: nor were they able to be induced to form fenestrations
[1]; [4]
  cell surface covered by stimulated fenestrations: approximately 40%
  size of the fenestration type that accounts for the increase: ~60 nm

## O=C(O)CNC(=O)c1c(O)c2ccccc2n(Cc2ccccc2)c1=O [IOX2]
Arterial and venous ECs; 4-day application under hypoxic conditions, by day 16
  conversion of CD31+ ECs to LYVE1+CD32+ LSEC-LCs: highly efficient conversion
Arterial and venous ECs; CD31+LYVE1+ arterial ECs under elevated oxygen conditions, increasing doses, days 12-16
  CD32 protein: dose dependant upregulation
Arterial and venous ECs; [5]
  FCGR2B and F8 expression: upregulated
  LYVE1 expression: significantly downregulated
  STAB2 expression: did not change

## VEGF
[2]; 100 ng/ml VEGF, 5 ng/ml bFGF, day 6
  bias of CD34+ cells to arterial or venous subpopulation: predominantly CD184^+CD73^low arterial-like population
[2]; VEGF 0 to 100 ng/ml added to day 4 cultures with 5 ng/ml bFGF, day 6
  frequency of CD34+ cells: significant and dose dependant increase

## bFGF: bFGF (also referred to as FGF2), growth factor
[2]; [6]
  size of the CD34+CD184+CD73low subpopulation: decrease
  size of the CD34+CD184-CD73- subpopulation: increase
  size of the total CD34+ population: modest increase

## NC(=O)c1ccc(-c2nc(-c3ccc4c(c3)OCO4)c(-c3ccccn3)[nH]2)cc1 [SB431542, 4-(4-(benzo[d][1,3]dioxol-5-yl)-5-(pyridin-2-yl)-1H-imidazol-2-yl)benzamide]
[3]
  expression of LSEC associated markers (LYVE1, STAB2, FCGR2B, F8): induced the expression of STAB2 and FCGR2B but not LYVE1

B1: VEGFC: VEGFC growth factor, 0 or 100 ng/ml (protein, UniProt P49767 112-227, looked up)
Vascular endothelial growth …: AHYNTEILKSIDNEWRKTQCMPREVCIDVGKEFGVATNTFFKPPCVSVYRCGGCCNSEGLQCMNTSTSYLSKTLFEITVPLSQGPKPVTISFANHTSCRCMSKLDVYRQVHSIIRR
[3]; VEGFC 100 ng/ml, 4 days, RT-qPCR
  expression of lymphatic markers PROX1 and FLT4: increased
[3]
  expression of LSEC associated markers (LYVE1, STAB2, FCGR2B, F8): modestly enhance the expression of some LSEC markers
